Paper PMC8053501 (Diabetes, Metabolic Syndrome and Obesity: Targets and …, 2021)
Where two headings read alike, the source gives them in different places.

How the values were obtained:
[1] = normal mice, oral gavage, 3mg/kg
[2] = system: diabetes mellitus patients; assay: Acute kidney injury; format: in vivo, human; settings: for Association with AKI, Unadjusted (95% CI) / Association with AKI, Adjusted (95% CI): metformin as reference; for Association with AKI, Adjusted (95% CI): multivariate; for Events During the 90 days (AKI): primary endpoint, first 90 days, patients above 55 years; for Total endpoint (AKI events): primary plus secondary endpoint; for Events at secondary end (AKI): secondary endpoint, after 90 days of hospital admission; for Total Percent (incidence rate of AKI at the end of the study): share of the 4966 total outcomes
in vivo = settings: male, ICR, mouse, po; for Cmax / half-life: oral gavage; for half-life: t1/2, mouse
[3] = Endpoint Diagnosis with 1047 Outcome
[4] = Secondary Diagnosis with 3919 Outcomes

OC[C@H]1O[C@@H](c2ccc(F)c(Cc3cc4ccccc4s3)c2)[C@H](O)[C@@H](O)[C@@H]1O [Ipragliflozin, ipragliflozin]
Drug concentration, time course ([1]; Kidney, 0h): 0 | Drug concentration, time course ([1]; Kidney, 3h): 16,700 | Drug concentration, time course ([1]; Kidney, 6h): 14,500 | Drug concentration, time course ([1]; Kidney, 9h): 8000 | Drug concentration, time course ([1]; Kidney, 12h): 4500 | Drug concentration, time course ([1]; Kidney, 15h): 3000 | Drug concentration, time course ([1]; Kidney, 18h): 1500 | Drug concentration, time course ([1]; Kidney, 21h): 1000 | Drug concentration, time course ([1]; Kidney, 24h): 850 | Drug concentration, time course ([1]; Liver, 0h): 0 | Drug concentration, time course ([1]; Liver, 3h): 7500 | Drug concentration, time course ([1]; Liver, 6h): 6000 | Drug concentration, time course ([1]; Liver, 9h): 1200 | Drug concentration, time course ([1]; Liver, 12h): 300 | Drug concentration, time course ([1]; Liver, 15h): 50 | Drug concentration, time course ([1]; Liver, 18h): 0 | Drug concentration, time course ([1]; Liver, 21h): 0 | Drug concentration, time course ([1]; Liver, 24h): 0 | Drug concentration, time course ([1]; Plasma, 0h): 0 | Drug concentration, time course ([1]; Plasma, 3h): 300 | Drug concentration, time course ([1]; Plasma, 6h): 250 | Drug concentration, time course ([1]; Plasma, 9h): 30 | Drug concentration, time course ([1]; Plasma, 12h): 0 | Drug concentration, time course ([1]; Plasma, 15h): 0 | Drug concentration, time course ([1]; Plasma, 18h): 0 | Drug concentration, time course ([1]; Plasma, 21h): 0 | Drug concentration, time course ([1]; Plasma, 24h): 0 | Association with AKI, Unadjusted (95% CI) [2, 3]: 0.78 (0.61–1.08) | Association with AKI, Adjusted (95% CI) [2, 3]: 0.86 (0.69–1.31) | Association with AKI, Unadjusted (95% CI) [2, 4]: 0.84 (0.69–1.16) | Association with AKI, Adjusted (95% CI) [2, 4]: 0.95 (0.62–1.45) | Events During the 90 days (AKI) [2]: 58 | Total endpoint (AKI events) [2]: 269 | Events at secondary end (AKI) [2]: 211 | Total Percent (incidence rate of AKI at the end of the study) [2]: 5.42% | Tmax (in vivo): 0.5 h | Tmax (in vivo; 3 mg/kg): 0.5 h | Cmax (in vivo; 3 mg/kg, Kidney): 4140 ng/mL | Cmax (in vivo; 3 mg/kg, Liver): 3040 ng/mL | Cmax (in vivo; 3 mg/kg, Plasma): 975 ng/mL | half-life (in vivo; 3 mg/kg, Kidney): 2.3 h | half-life (in vivo; 3 mg/kg, Liver): 1.5 h | half-life (in vivo; 3 mg/kg, Plasma): 1.6 h

OC[C@H]1O[C@@H](c2ccc(Cl)c(Cc3ccc(O[C@H]4CCOC4)cc3)c2)[C@H](O)[C@@H](O)[C@@H]1O [Jardiance]
Drug concentration, time course ([1]; Kidney, 0h): 0 | Drug concentration, time course ([1]; Kidney, 3h): 1800 | Drug concentration, time course ([1]; Kidney, 6h): 1200 | Drug concentration, time course ([1]; Kidney, 9h): 550 | Drug concentration, time course ([1]; Kidney, 12h): 100 | Drug concentration, time course ([1]; Kidney, 15h): 0 | Drug concentration, time course ([1]; Kidney, 18h): 0 | Drug concentration, time course ([1]; Kidney, 21h): 0 | Drug concentration, time course ([1]; Kidney, 24h): 0 | Drug concentration, time course ([1]; Liver, 0h): 0 | Drug concentration, time course ([1]; Liver, 3h): 1100 | Drug concentration, time course ([1]; Liver, 6h): 850 | Drug concentration, time course ([1]; Liver, 9h): 400 | Drug concentration, time course ([1]; Liver, 12h): 50 | Drug concentration, time course ([1]; Liver, 15h): 0 | Drug concentration, time course ([1]; Liver, 18h): 0 | Drug concentration, time course ([1]; Liver, 21h): 0 | Drug concentration, time course ([1]; Liver, 24h): 0 | Drug concentration, time course ([1]; Plasma, 0h): 0 | Drug concentration, time course ([1]; Plasma, 3h): 500 | Drug concentration, time course ([1]; Plasma, 6h): 450 | Drug concentration, time course ([1]; Plasma, 9h): 200 | Drug concentration, time course ([1]; Plasma, 12h): 0 | Drug concentration, time course ([1]; Plasma, 15h): 0 | Drug concentration, time course ([1]; Plasma, 18h): 0 | Drug concentration, time course ([1]; Plasma, 21h): 0 | Drug concentration, time course ([1]; Plasma, 24h): 0 | Association with AKI, Unadjusted (95% CI) [2, 3]: 0.87 (0.69–1.12) | Association with AKI, Adjusted (95% CI) [2, 3]: 0.76 (0.58–1.18) | Association with AKI, Unadjusted (95% CI) [2, 4]: 0.83 (0.68–1.14) | Association with AKI, Adjusted (95% CI) [2, 4]: 0.85 (0.67–1.18) | Events During the 90 days (AKI) [2]: 57 | Total endpoint (AKI events) [2]: 277 | Events at secondary end (AKI) [2]: 220 | Total Percent (incidence rate of AKI at the end of the study) [2]: 5.58% | Tmax (in vivo): 1 h | Tmax (in vivo; 3 mg/kg): 1 h | Cmax (in vivo; 3 mg/kg, Kidney): 1740 ng/mL | Cmax (in vivo; 3 mg/kg, Liver): 1150 ng/mL | Cmax (in vivo; 3 mg/kg, Plasma): 412 ng/mL | half-life (in vivo; 3 mg/kg, Kidney): 2.1 h | half-life (in vivo; 3 mg/kg, Liver): 2.2 h | half-life (in vivo; 3 mg/kg, Plasma): 1.8 h

CC#CCn1c(N2CCC[C@@H](N)C2)nc2c1c(=O)n(Cc1nc(C)c3ccccc3n1)c(=O)n2C [Linagliptin, linagliptin]
Drug concentration, time course ([1]; Kidney, 0h): 0 | Drug concentration, time course ([1]; Kidney, 3h): 18,500 | Drug concentration, time course ([1]; Kidney, 6h): 12,800 | Drug concentration, time course ([1]; Kidney, 9h): 9500 | Drug concentration, time course ([1]; Kidney, 12h): 5400 | Drug concentration, time course ([1]; Kidney, 15h): 2500 | Drug concentration, time course ([1]; Kidney, 18h): 500 | Drug concentration, time course ([1]; Kidney, 21h): 0 | Drug concentration, time course ([1]; Kidney, 24h): 0 | Drug concentration, time course ([1]; Liver, 0h): 0 | Drug concentration, time course ([1]; Liver, 3h): 7500 | Drug concentration, time course ([1]; Liver, 6h): 6000 | Drug concentration, time course ([1]; Liver, 9h): 1200 | Drug concentration, time course ([1]; Liver, 12h): 300 | Drug concentration, time course ([1]; Liver, 15h): 50 | Drug concentration, time course ([1]; Liver, 18h): 0 | Drug concentration, time course ([1]; Liver, 21h): 0 | Drug concentration, time course ([1]; Liver, 24h): 0 | Drug concentration, time course ([1]; Plasma, 0h): 0 | Drug concentration, time course ([1]; Plasma, 3h): 450 | Drug concentration, time course ([1]; Plasma, 6h): 310 | Drug concentration, time course ([1]; Plasma, 9h): 50 | Drug concentration, time course ([1]; Plasma, 12h): 0 | Drug concentration, time course ([1]; Plasma, 15h): 0 | Drug concentration, time course ([1]; Plasma, 18h): 0 | Drug concentration, time course ([1]; Plasma, 21h): 0 | Drug concentration, time course ([1]; Plasma, 24h): 0 | Association with AKI, Unadjusted (95% CI) [2, 3]: 0.97 (0.68–1.32) | Association with AKI, Adjusted (95% CI) [2, 3]: 0.86 (0.72–1.46) | Association with AKI, Unadjusted (95% CI) [2, 4]: 0.87 (0.72–1.21) | Association with AKI, Adjusted (95% CI) [2, 4]: 1.23 (0.73–1.65) | Events During the 90 days (AKI) [2]: 56 | Total endpoint (AKI events) [2]: 284 | Events at secondary end (AKI) [2]: 228 | Total Percent (incidence rate of AKI at the end of the study) [2]: 5.72% | Tmax (in vivo): 1 h | Tmax (in vivo; 3 mg/kg): 1 h | Cmax (in vivo; 3 mg/kg, Kidney): 6440 ng/mL | Cmax (in vivo; 3 mg/kg, Liver): 5050 ng/mL | Cmax (in vivo; 3 mg/kg, Plasma): 578 ng/mL | half-life (in vivo; 3 mg/kg, Kidney): 3.7 h | half-life (in vivo; 3 mg/kg, Liver): 2.8 h | half-life (in vivo; 3 mg/kg, Plasma): 2.6 h

N#C[C@@H]1CCCN1C(=O)CNC12CC3CC(CC(O)(C3)C1)C2 [Vildagliptin, vildagliptin]
Drug concentration, time course ([1]; Kidney, 0h): 0 | Drug concentration, time course ([1]; Kidney, 3h): 4500 | Drug concentration, time course ([1]; Kidney, 6h): 3950 | Drug concentration, time course ([1]; Kidney, 9h): 1650 | Drug concentration, time course ([1]; Kidney, 12h): 100 | Drug concentration, time course ([1]; Kidney, 15h): 25 | Drug concentration, time course ([1]; Kidney, 18h): 0 | Drug concentration, time course ([1]; Kidney, 21h): 0 | Drug concentration, time course ([1]; Kidney, 24h): 0 | Drug concentration, time course ([1]; Liver, 0h): 0 | Drug concentration, time course ([1]; Liver, 3h): 8300 | Drug concentration, time course ([1]; Liver, 6h): 4800 | Drug concentration, time course ([1]; Liver, 9h): 2900 | Drug concentration, time course ([1]; Liver, 12h): 300 | Drug concentration, time course ([1]; Liver, 15h): 50 | Drug concentration, time course ([1]; Liver, 18h): 0 | Drug concentration, time course ([1]; Liver, 21h): 0 | Drug concentration, time course ([1]; Liver, 24h): 0 | Drug concentration, time course ([1]; Plasma, 0h): 0 | Drug concentration, time course ([1]; Plasma, 3h): 7500 | Drug concentration, time course ([1]; Plasma, 6h): 3000 | Drug concentration, time course ([1]; Plasma, 9h): 1200 | Drug concentration, time course ([1]; Plasma, 12h): 600 | Drug concentration, time course ([1]; Plasma, 15h): 200 | Drug concentration, time course ([1]; Plasma, 18h): 0 | Drug concentration, time course ([1]; Plasma, 21h): 0 | Drug concentration, time course ([1]; Plasma, 24h): 0 | Association with AKI, Unadjusted (95% CI) [2, 3]: 1.23 (0.97–1.32) | Association with AKI, Adjusted (95% CI) [2, 3]: 1.18 (0.92–1.35) | Association with AKI, Unadjusted (95% CI) [2, 4]: 1.20 (0.72–1.38) | Association with AKI, Adjusted (95% CI) [2, 4]: 1.07 (0.95–1.45) | Events During the 90 days (AKI) [2]: 79 | Total endpoint (AKI events) [2]: 316 | Events at secondary end (AKI) [2]: 237 | Total Percent (incidence rate of AKI at the end of the study) [2]: 6.36% | Tmax (in vivo): 0.5 h | Tmax (in vivo; 3 mg/kg): 0.5 h | Cmax (in vivo; 3 mg/kg, Kidney): 5870 ng/mL | Cmax (in vivo; 3 mg/kg, Liver): 5030 ng/mL | Cmax (in vivo; 3 mg/kg, Plasma): 765 ng/mL
